Laboratory results taken from patent US11021457B2, “Class of isoindolone-imide ring-1,3-dione-2-ene compounds, composition and use thereof” (WIGEN BIOMEDICINE TECHNOLOGY (SHANGHAI) CO., LTD., priority 2017, dated 2021).

What was measured:
SU-DHL6 = experiment: Inhibition of tumor cell proliferation, CellTiter-Glo, SU-DHL6; format: cell-based; conditions: compound concentration 50 μM, 72 hours
In short: (§1)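 Luminescent ATP read-out (CellTiter-Glo) after 72 hours gave survival relative to untreated wells, corrected for blank. Activity categories were assigned from survival at 50 μM: ≤30% high, >30-60% moderate, 60-<90% low.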

RPMI-8226 = experiment: Inhibition of tumor cell proliferation, CellTiter-Glo, RPMI-8226; format: cell-based; conditions: compound concentration 50 μM, 72 hours
In short: as §1

K562 = experiment: Inhibition of tumor cell proliferation, CellTiter-Glo, K562; format: cell-based; conditions: compound concentration 50 μM, 72 hours
In short: as §1

A549 = experiment: Inhibition of tumor cell proliferation, CellTiter-Glo, A549; format: cell-based; conditions: compound concentration 50 μM, 72 hours
In short: as §1

MDA-MB-453 = experiment: Inhibition of tumor cell proliferation, CellTiter-Glo, MDA-MB-453; format: cell-based; conditions: compound concentration 50 μM, 72 hours
In short: as §1

BxPC-3 = experiment: Inhibition of tumor cell proliferation, CellTiter-Glo, BxPC-3; format: cell-based; conditions: compound concentration 50 μM, 72 hours
In short: as §1

[1] = test system: human multiple myeloma RPMI8226 cell xenograft tumor; experiment: In-vivo anti-tumor efficacy in multiple myeloma xenograft tumor model (tumor volume, T/C, TGI); design: species or system mouse; conditions: for Average volume (mm3) Start of the treatment Day 1 / Average volume (mm3) End of the treatment Day 21 / T/C %: QD × 21; for Average volume (mm3) End of the treatment Day 21 / T/C %: Day 21
Protocol: The in-vivo anti-tumor efficacy of the compound 1, lenalidomide, dexamethasone and a combination of the compound 1 or lenalidomide with dexamethasone in human multiple myeloma RPMI8226 cell xenograft tumor model was evaluated.
(§2) The test animals were female CB17 SCID mice. Human RPMI8226 cells were cultured in RPMI1640 medium containing 10% heat-inactivated fetal bovine serum and 1% penicillin-streptomycin double antibody in an incubator with 5% CO2 at 37° C. When the cells were in an exponential growth phase, the cells were harvested, counted, and subcutaneously inoculated into the right dorsal portion of each mouse. The mice were grouped and administered when the average tumor volume reached about 150 mm^3. Grouping method: the animals were weighed and measured for the tumor volume before administration, and grouped by block design according to the tumor volume.
(§3) Whether the tumor growth could be inhibited, delayed or cured was investigated. The diameter of the tumor was measured by a vernier caliper. The tumor volume was calculated by a formula: V=0.5×a×b^2, in which a and b respectively represent the long diameter and short diameter of the tumor. The anti-tumor effect T/C (%) of the compound was evaluated by a formula: T/C %=TRTV/CRTV×100% (TRTV: RTV of the treatment group; CRTV: RTV of the negative control group). The relative tumor volume RTV was calculated by a formula: RTV=Vt/V0, where V0 is the measured tumor volume at the time of grouping and administration (i.e. day 0), and Vt is the tumor volume at each measurement. T/C (%) reflects the inhibition rate on tumor growth. […] The weight of the mice bearing tumor in each group was recorded and analyzed, as shown in FIGS. 1 and 2 and Table 14, and the effect of the compound on the tumor volume of the mice bearing tumor is shown in FIGS. 3 and 4 and Table 15.

[2] = Body weight of tumor-bearing mice in the in-vivo pharmacodynamic test; design: species or system mouse; conditions: for Average body weight (g) Start of the treatment Day 1 / Average body weight (g) End of the treatment Day 21 / Average RCBW (%)/end of the treatment Day 21: QD × 21; for Average body weight (g) Start of the treatment Day 1 / Average body weight (g) End of the treatment Day 21: x ± SEM; for Average RCBW (%)/end of the treatment Day 21: Day 21 relative to Day 1
Protocol: as §2, §3

LC3B = LC3B (Homo sapiens (Human), UniProt Q9GZQ8); experiment: Fluorescence polarization experiment targeting LC3B (GST-LC3B with FITC-labeled peptide); conditions: GST-LC3B 180 nM, FITC-labeled peptide 18 nM, 25° C.
[3] = Compound 1 53 mg/kg + Dexamethasone 1 mg/kg
[4] = Compound 1 53 mg/kg p.o + Dexamethasone 1 mg/kg i.p
[5] = Lenalidomide 30 mg/kg + Dexamethasone 1 mg/kg
[6] = Lenalidomide 30 mg/kg p.o, RPMI8226 tumor-bearing mice
[7] = Lenalidomide 30 mg/kg p.o + Dexamethasone 1 mg/kg i.p
[8] = Lenalidomide 30 mg/kg p.o., RPMI8226 tumor-bearing mice

O=C1CCC(N2Cc3c(NC=C4C(=O)CC(c5ccccc5)CC4=O)cccc3C2=O)C(=O)N1 (stereo not drawn) [Compound 1]
Inhibitory activity against proliferation (cell survival rate) SU-DHL6 (SU-DHL6): +++ (survival rate (%)≤30)
Inhibitory activity against proliferation (cell survival rate) RPMI-8226 (RPMI-8226): +++ (survival rate (%)≤30)
Inhibitory activity against proliferation (cell survival rate) K562 (K562): +++ (survival rate (%)≤30)
Inhibitory activity against proliferation (cell survival rate) A549 (A549): +++ (survival rate (%)≤30)
Inhibitory activity against proliferation (cell survival rate) MDA-MB-453 (MDA-MB-453): ++ (30<survival rate (%)≤60)
Inhibitory activity against proliferation (cell survival rate) BxPC-3 (BxPC-3): ++ (30<survival rate (%)≤60)
Tumor inhibition effect ([1]; 17.7 mg/kg, versus lenalidomide 30 mg/kg): comparable to that of lenalidomide
Anti-tumor effect ([1]; 53 mg/kg (same molar dose as lenalidomide)): significantly higher than lenalidomide
Average volume (mm3) Start of the treatment Day 1 ([1]; Compound 1 17.7 mg/kg p.o): 141.27 ± 14.61 mm3
Average volume (mm3) End of the treatment Day 21 ([1]; Compound 1 17.7 mg/kg p.o): 881.71 ± 175.49 mm3
T/C % ([1]; Compound 1 17.7 mg/kg p.o): 47.20%
Average volume (mm3) Start of the treatment Day 1 [1, 3]: 141.54 ± 14.27 mm3
Average volume (mm3) End of the treatment Day 21 [1, 3]: 179.24 ± 48.35 mm3
T/C % [1, 3]: 9.60%
Average volume (mm3) Start of the treatment Day 1 ([1]; Compound 1 53 mg/kg p.o): 142.38 ± 15.41 mm3
Average volume (mm3) End of the treatment Day 21 ([1]; Compound 1 53 mg/kg p.o): 674.46 ± 137.82 mm3
T/C % ([1]; Compound 1 53 mg/kg p.o): 36.11%
Tumor inhibition effect ([1]; in combination with dexamethasone): stronger tumor inhibition effect than lenalidomide
Average body weight (g) Start of the treatment Day 1 ([2]; Compound 1 17.7 mg/kg p.o): 21.60 ± 0.36 g
Average body weight (g) End of the treatment Day 21 ([2]; Compound 1 17.7 mg/kg p.o): 22.49 ± 0.39 g
Average RCBW (%)/end of the treatment Day 21 ([2]; Compound 1 17.7 mg/kg p.o): 4.13%
Average body weight (g) Start of the treatment Day 1 [2, 4]: 21.41 ± 0.32 g
Average body weight (g) End of the treatment Day 21 [2, 4]: 20.46 ± 0.31 g
Average RCBW (%)/end of the treatment Day 21 [2, 4]: −4.46%
Average body weight (g) Start of the treatment Day 1 ([2]; Compound 1 53 mg/kg p.o): 21.15 ± 0.36 g
Average body weight (g) End of the treatment Day 21 ([2]; Compound 1 53 mg/kg p.o): 22.25 ± 0.31 g
Average RCBW (%)/end of the treatment Day 21 ([2]; Compound 1 53 mg/kg p.o): 5.27%
Effect on body weight of tumor-bearing mice ([2]; in combination with dexamethasone, attributed to dexamethasone): weight loss
Effect on body weight of tumor-bearing mice ([2]; throughout the administration period): does not affect the body weight
IC50 (LC3B): 3 to 15 µM

Nc1cccc2c1CN(C1CCC(=O)NC1=O)C2=O (stereo not drawn) [Lenalidomide, reference compound]
Average volume (mm3) Start of the treatment Day 1 [1, 5]: 141.35 ± 15.02 mm3
Average volume (mm3) End of the treatment Day 21 [1, 5]: 233.72 ± 47.47 mm3
T/C % [1, 5]: 12.51%
Average volume (mm3) Start of the treatment Day 1 [1, 6]: 140.44 ± 15.82 mm3
T/C % ([1]; Lenalidomide 30 mg/kg p.o): 49.67%
Average volume (mm3) End of the treatment Day 21 [1, 6]: 927.82 ± 164.85 mm3
Average body weight (g) Start of the treatment Day 1 [2, 7]: 21.23 ± 0.34 g
Average body weight (g) End of the treatment Day 21 [2, 7]: 20.08 ± 0.25 g
Average RCBW (%)/end of the treatment Day 21 [2, 7]: −5.33%
Average body weight (g) Start of the treatment Day 1 [2, 8]: 21.02 ± 0.23 g
Average body weight (g) End of the treatment Day 21 [2, 8]: 21.90 ± 0.30 g
Average RCBW (%)/end of the treatment Day 21 ([2]; Lenalidomide 30 mg/kg p.o.): 4.18%
